Test results as given in article PMC9115112, “A2B adenosine receptor antagonists rescue lymphocyte activity in adenosine-producing patient-derived cancer models” (Journal for Immunotherapy of Cancer, 2022).

Columns and labels:
Assay type in all cases: cell-based, human
[1] = tested on: breast cancer patient-derived spheroid cultures; experiment: Cell viability assay (Cell-Titer Glo) on breast cancer patient-derived spheroid cultures; settings: 4 days exposure
Procedure: From breast cancer single cell suspension, 3×10^3 cells were seeded and cultured in an ultra-low attachment 384-well plate (Corning) with DMEM-F12 media (Thermo Fisher Scientific) containing 20% FBS and 1% PS. Treatment with A2BAR antagonist at various concentrations are stated in the Results section. After 4 days, Cell-Titer Glo reagent (Promega) was used to measure cell viability in accordance to the manufacturer’s instruction. EnSpire Multilabel Reader (PerkinElmer) was used to read the luminescence.
(§1) Figure 2 Antitumor effect of A2BAR antagonists on breast cancer patient-derived spheroid cultures. (A) Relative cell viability to untreated antagonist control spheroid cultures (n=3, mean±SD) measured by Cell-Titer Glo assay. (B) Representative real time imaging of spheroid cultures over 6 days under 4X objective, with untreated (first column) or added 12 µM concentration respective of A2BAR antagonists indicated. Red mask demarcates area with cells surrounding the spheroid. Green line indicates estimated diameter of spheroid body. (C) Relative area of the representative spheroid growth (as shown in B) normalized to day 1. Statistical analysis—2-way (A) and 1-way (C) ANOVA with Dunnett’s multiple comparisons to untreated antagonist control was performed with *p<0.05, **p<0.01, ***p<0.001, and ****p<0.0001.

[2] = tested on: breast cancer patient-derived spheroid cultures; experiment: Real-time imaging (IncuCyte) of breast cancer patient-derived spheroid growth; settings: middle antagonist concentration (12 µM in figure 2), 6 days real-time imaging
Procedure: Brightfield and phase contrast images under 4X objective were acquired every 6 hours on IncuCyte S3 system (Essen BioScience). For breast cancer patient-derived spheroid culture, 1×10^4 cells per well were seeded with A2BAR antagonist at 12 µM treatment for 6 days real time imaging. For spheroid infiltration, after the addition of CSFE-labeled autologous expanded TILs and treatment with A2BAR antagonist at 12 µM, green fluorescence images were acquired for 3 days. All spheroid invasion analysis was performed using top hat segmentation with IncuCyte software.
as §1

[3] = tested on: healthy donor T cells (PBMCs) and NK cells; experiment: CFSE proliferation assay with exogenous adenosine; settings: exogenous adenosine 0.1 mM, antagonist 12 µM; for Rescue of lymphocyte (T and NK cell) proliferation: 3 days (T) and 6 days (NK); for Rescue of NK cell proliferation: 6 days
Procedure: Freshly isolated PBMCs and NK cells were stained with 5 µM FITC-conjugated carboxyfluorescein succinimidyl ester (CFSE, BioLegend) in phosphate-buffered saline (PBS) (Life Technologies) at room temperature for 5 min. CSFE stained cells were washed with flow cytometer buffer three times. CSFE-labeled healthy PBMCs and NK cells were cultured in 96-well plates with X-VIVO20% and 1% PS for 3 and 6 days, respectively. Healthy PBMCs were incubated with Human T-activator CD3/CD28 beads at 1:4 ratio (Thermo Fisher Scientific) and IL-2 (Novartis) at 100 IU/mL. Healthy donor NK cells were incubated with 1000 IU/mL IL-2 only. 2×10^5 PBMCs and 5×10^4 NK cells were counted for treatment with ADO (Sigma-Aldrich) and 12 μM of A2BAR antagonist at the same day.
Figure 3 Rescue of lymphocyte proliferation by of A2BAR antagonism. Relative proliferation of: (A) CD45RA- CD4 T cells, (B) CD45RA+ CD4 T cells, (C) CD45RA- CD8 T cells, (D) CD45RA+ CD8 T cells, and (E) NK cells, after incubation with exogenous adenosine 0.1 mM and A2BAR antagonist 12 µM for 3 (A–D) and 6 (E) days. (n=10 healthy donors) CD45RA expression differentiates naïve and effector T cells from central and effector memory T cells. Box plots with minimum, first quartile, median, third quartile, and maximum are presented. Unpaired and non-parametric statistical analysis—Mann-Whitney test was performed against untreated control with *p<0.05, **p<0.01, ***p<0.001, and ****p<0.0001. (F–J) Representative CFSE histogram on the corresponding lymphocyte subset. CFSE, carboxyfluorescein succinimidyl ester.

SMILES: CC1=C(C(=O)OC(C)C)C(c2ccco2)n2c(nc3ccccc32)N1 (stereo not drawn) [ISAM-140, isopropyl 4-(furan-2-yl)−2-methyl-1,4-dihydrobenzo[4 5] imidazo[1,2 a]pyrimidine-3-carboxylate]
- Relative cell viability of breast cancer spheroids vs untreated control ([1]; n=3): significantly reduced
- Spheroid growth over time (relative area) vs untreated control [2]: significantly affected the spheroid growth over time
- Rescue of lymphocyte (T and NK cell) proliferation [3]: improved immune cell proliferation
- Rescue of proliferation of CD45RA+ (naïve and effector) CD8 T cells ([3]; 3 days, n=10 healthy donors): rescued the proliferation
- Rescue of proliferation of CD45RA+ CD4 T cells ([3]; 3 days, n=10 healthy donors): rescued the proliferation
- Rescue of proliferation of CD45RA- CD4 T cells (central and effector memory) ([3]; 3 days, n=10 healthy donors): rescued the proliferation
- Rescue of NK cell proliferation ([3]; n=10 healthy donors): rescued the proliferation

SMILES: CC1=C(C(=O)OC(C)C)C(c2ccoc2)n2c(nc3cc(Cl)ccc32)N1 (stereo not drawn) [ISAM-M89A]
- Relative cell viability of breast cancer spheroids vs untreated control ([1]; n=3): more pronounced effect
- Relative cell viability of breast cancer spheroids vs untreated control ([1]; n=3, listed as ISAM–M89A): significantly reduced
- Spheroid growth over time (relative area) vs untreated control [2]: significantly affected the spheroid growth over time
- Rescue of lymphocyte (T and NK cell) proliferation [3]: did not restore the proliferation

SMILES: CC1=C(C(=O)OC(C)C)C(c2ccco2)n2c(nc3ccccc32)N1Cc1ccccc1F (stereo not drawn) [ISAM-R56A]
- Relative cell viability of breast cancer spheroids vs untreated control ([1]; n=3): significantly reduced
- Spheroid growth over time (relative area) vs untreated control [2]: significantly affected the spheroid growth over time
- Rescue of proliferation of T cell subsets ([3]; 3 days, n=10 healthy donors): did not restore the proliferation
- Rescue of NK cell proliferation ([3]; n=10 healthy donors): significantly rescued
